Measured values: ChEMBL document CHEMBL2202954, “The effect of PLC-γ2 inhibitors on the growth of human tumour cells” (2012)

Assays:
Format in all cases: functional
COLO 205 = experiment: Cytotoxicity against human COLO205 cells assessed as cellular growth at 10 uM by SRB assay
Hs-578T = experiment: Cytotoxicity against human Hs578T cells assessed as cellular growth at 10 uM by SRB assay
DU-145 = experiment: Cytotoxicity against human DU145 cells assessed as cellular growth at 10 uM by SRB assay
MDA-MB-468 = experiment: Cytotoxicity against human MDA-MB-468 cells assessed as cellular growth at 10 uM by SRB assay
CCRF-CEM = experiment: Cytotoxicity against human CCRF-CEM cells assessed as cellular growth at 10 uM by SRB assay
OVCAR-4 = experiment: Cytotoxicity against human OVCAR4 cells assessed as cellular growth at 10 uM by SRB assay
HCT-116 = experiment: Cytotoxicity against human HCT116 cells assessed as cellular growth at 10 uM by SRB assay
BT-549 = experiment: Cytotoxicity against human BT549 cells assessed as cellular growth at 10 uM by SRB assay
T47D = experiment: Cytotoxicity against human T47D cells assessed as cellular growth at 10 uM by SRB assay
NCI-H322M = experiment: Cytotoxicity against human NCI-H322M cells assessed as cellular growth at 10 uM by SRB assay
MCF7 = experiment: Cytotoxicity against human MCF7 cells assessed as cellular growth at 10 uM by SRB assay
SK-OV-3 = experiment: Cytotoxicity against human SKOV3 cells assessed as cellular growth at 10 uM by SRB assay
NCI-H460 = experiment: Cytotoxicity against human NCI-H460 cells assessed as cellular growth at 10 uM by SRB assay
SF-539 = experiment: Cytotoxicity against human SF539 cells assessed as cellular growth at 10 uM by SRB assay
HT-29 = experiment: Cytotoxicity against human HT-29 cells assessed as cellular growth at 10 uM by SRB assay
KM12 = experiment: Cytotoxicity against human KM12 cells assessed as cellular growth at 10 uM by SRB assay
SK-MEL-5 = experiment: Cytotoxicity against human SK-MEL-5 cells assessed as cellular growth at 10 uM by SRB assay
RXF 393 = experiment: Cytotoxicity against human RXF393 cells assessed as cellular growth at 10 uM by SRB assay
TK-10 = experiment: Cytotoxicity against human TK10 cells assessed as cellular growth at 10 uM by SRB assay
SF-295 = experiment: Cytotoxicity against human SF295 cells assessed as cellular growth at 10 uM by SRB assay
SR = experiment: Cytotoxicity against human SR cells assessed as cellular growth at 10 uM by SRB assay
NCI-H522 = experiment: Cytotoxicity against human NCI-H522 cells assessed as cellular growth at 10 uM by SRB assay
IGROV-1 = experiment: Cytotoxicity against human IGROV1 cells assessed as cellular growth at 10 uM by SRB assay
OVCAR-5 = experiment: Cytotoxicity against human OVCAR5 cells assessed as cellular growth at 10 uM by SRB assay
HCC 2998 = experiment: Cytotoxicity against human HCC2998 cells assessed as cellular growth at 10 uM by SRB assay
ACHN = experiment: Cytotoxicity against human ACHN cells assessed as cellular growth at 10 uM by SRB assay
SK-MEL-28 = experiment: Cytotoxicity against human SK-MEL-28 cells assessed as cellular growth at 10 uM by SRB assay
SK-MEL-2 = experiment: Cytotoxicity against human SK-MEL-2 cells assessed as cellular growth at 10 uM by SRB assay
RPMI-8226 = experiment: Cytotoxicity against human RPMI8226 cells assessed as cellular growth at 10 uM by SRB assay
786-0 = experiment: Cytotoxicity against human 786-0 cells assessed as cellular growth at 10 uM by SRB assay
MDA-MB-435 = experiment: Cytotoxicity against human MDA-MB-435 cells assessed as cellular growth at 10 uM by SRB assay
M14 = experiment: Cytotoxicity against human M14 cells assessed as cellular growth at 10 uM by SRB assay
SW-620 = experiment: Cytotoxicity against human SW620 cells assessed as cellular growth at 10 uM by SRB assay
SNB-19 = experiment: Cytotoxicity against human SNB19 cells assessed as cellular growth at 10 uM by SRB assay
UACC-62 = experiment: Cytotoxicity against human UACC62 cells assessed as cellular growth at 10 uM by SRB assay
NCI-H23 = experiment: Cytotoxicity against human NCI-H23 cells assessed as cellular growth at 10 uM by SRB assay
HOP-62 = experiment: Cytotoxicity against human HOP62 cells assessed as cellular growth at 10 uM by SRB assay
MOLT-4 = experiment: Cytotoxicity against human MOLT4 cells assessed as cellular growth at 10 uM by SRB assay
HCT-15 = experiment: Cytotoxicity against human HCT15 cells assessed as cellular growth at 10 uM by SRB assay
UO-31 = experiment: Cytotoxicity against human UO31 cells assessed as cellular growth at 10 uM by SRB assay
SF-268 = experiment: Cytotoxicity against human SF268 cells assessed as cellular growth at 10 uM by SRB assay
CAKI-1 = experiment: Cytotoxicity against human Caki1 cells assessed as cellular growth at 10 uM by SRB assay
HOP-92 = experiment: Cytotoxicity against human HOP92 cells assessed as cellular growth at 10 uM by SRB assay
OVCAR-3 = experiment: Cytotoxicity against human OVCAR3 cells assessed as cellular growth at 10 uM by SRB assay
HL-60(TB) = experiment: Cytotoxicity against human HL-60(TB) cells assessed as cellular growth at 10 uM by SRB assay
OVCAR-8 = experiment: Cytotoxicity against human OVCAR8 cells assessed as cellular growth at 10 uM by SRB assay
[1] = Cytotoxicity against human NCI-ADR-RES cells assessed as cellular growth at 10 uM by SRB assay
A549 = experiment: Cytotoxicity against human A549 cells assessed as cellular growth at 10 uM by SRB assay
U-251 = experiment: Cytotoxicity against human U251 cells assessed as cellular growth at 10 uM by SRB assay
PC-3 = experiment: Cytotoxicity against human PC3 cells assessed as cellular growth at 10 uM by SRB assay
SNB-75 = experiment: Cytotoxicity against human SNB75 cells assessed as cellular growth at 10 uM by SRB assay
K562 = experiment: Cytotoxicity against human K562 cells assessed as cellular growth at 10 uM by SRB assay
NCI-H226 = experiment: Cytotoxicity against human NCI-H226 cells assessed as cellular growth at 10 uM by SRB assay
EKVX = experiment: Cytotoxicity against human EKVX cells assessed as cellular growth at 10 uM by SRB assay
Malme-3M = experiment: Cytotoxicity against human MALME-3M cells assessed as cellular growth at 10 uM by SRB assay
A498 = experiment: Cytotoxicity against human A498 cells assessed as cellular growth at 10 uM by SRB assay
SN12C = experiment: Cytotoxicity against human SN12C cells assessed as cellular growth at 10 uM by SRB assay
LOX IMVI = experiment: Cytotoxicity against human LOXIMVI cells assessed as cellular growth at 10 uM by SRB assay
UACC-257 = experiment: Cytotoxicity against human UACC257 cells assessed as cellular growth at 10 uM by SRB assay
MDA-MB-231 = experiment: Cytotoxicity against human MDA-MB-231 cells assessed as cellular growth at 10 uM by SRB assay

O=C(Nc1nc2ccccc2s1)c1ccc(F)cc1
Activity (COLO 205): 117.74%
Activity (Hs-578T): 140.08%
Activity (DU-145): 108.3%
Activity (MDA-MB-468): 94.15%
Activity (CCRF-CEM): 100.74%
Activity (OVCAR-4): 85.42%
Activity (HCT-116): 92.81%
Activity (BT-549): 109.49%
Activity (T47D): 55.31%
Activity (NCI-H322M): 92.49%
Activity (MCF7): 68.1%
Activity (SK-OV-3): 108.36%
Activity (NCI-H460): 69.18%
Activity (SF-539): 101.66%
Activity (HT-29): 108.47%
Activity (KM12): 52.84%
Activity (SK-MEL-5): 91.3%
Activity (RXF 393): 106.77%
Activity (TK-10): 125.36%
Activity (SF-295): 103.39%
Activity (SR): 98.39%
Activity (NCI-H522): 92.24%
Activity (IGROV-1): 88.87%
Activity (OVCAR-5): 100.92%
Activity (HCC 2998): 69.88%
Activity (ACHN): 98.03%
Activity (SK-MEL-28): 113.63%
Activity (SK-MEL-2): 113.78%
Activity (RPMI-8226): 88.45%
Activity (786-0): 107.84%
Activity (MDA-MB-435): 100.56%
Activity (M14): 109.51%
Activity (SW-620): 112.1%
Activity (SNB-19): 126.08%
Activity (UACC-62): 89.52%
Activity (NCI-H23): 89.91%
Activity (HOP-62): 106.04%
Activity (MOLT-4): 100.31%
Activity (HCT-15): 85.53%
Activity (UO-31): 89.11%
Activity (SF-268): 114.42%
Activity (CAKI-1): 62.93%
Activity (HOP-92): 78.65%
Activity (OVCAR-3): 103.91%
Activity (HL-60(TB)): 111.31%
Activity (OVCAR-8): 109.5%
Activity [1]: 95.74%
Activity (A549): 98.36%
Activity (U-251): 99.72%
Activity (PC-3): 96.56%
Activity (SNB-75): 96.73%
Activity (K562): 89.96%
Activity (NCI-H226): 92.69%
Activity (EKVX): 77.77%
Activity (Malme-3M): 96.2%
Activity (A498): 89.82%
Activity (SN12C): 108.22%
Activity (LOX IMVI): 100.61%
Activity (UACC-257): 107.84%
Activity (MDA-MB-231): 95.53%
